In patent publication US20240207422A1, “NERVE TARGETING PEPTIDE CONJUGATES AND METHODS OF USE” (Alume Biosciences, Inc., priority 2022, published 2024):

Tested on: excised human nerve tissue
Experiment: Phage display selection on excised human nerve tissue (Nerve2, Nerve3), NextGen sequence counts
Type: binding
Conditions: unique sequence count (relative enrichment); Nerve2 only
Procedure, shortened: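 Randomized parent-peptide m13 phage libraries (about 50% mutation per residue) selected on washed excised human nerve tissue over multiple rounds, washing nerve pellet with PBS. NextGen sequencing of pools after rounds 2, 3 and 4; translated peptides counted by frequency, with counts 6 or greater retained.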

Which Count does the source give for 304 (RVPGERQYDALNLS) [compound 304] here?
The Count was 11.

305 (YVPLQEPYYVVKQS) [compound 305] was tested. Which Count did it give?
The Count was 11.

With 306 (ESALKEPHQVLKHS) [compound 306] as the substance, how does the Count read?
The Count was 10.

307 (HAPADQLYYPVWKP) [compound 307] was tested. Which Count did it give?
The Count was 10.

With 308 (HFPWEEPYHVAKRS) [compound 308] as the substance, how does the Count read?
The Count was 10.

With 309 (HFQSEEPYHIPHKH) [compound 309] as the substance, how does the Count read?
Its Count is 10.

With 310 (HHPLQEPYYVVEKS) [compound 310] as the substance, how does the Count read?
Its Count is 10.

With 311 (HMPGREPYYVVTTS) [compound 311] as the substance, how does the Count read?
The Count was 10.

How did the Count turn out when 312 (HVAWKGPYYVLETH) [compound 312] was run?
The Count was 10.

How did the Count turn out when 313 (HVHGAPSYSVLKHS) [compound 313] was run?
The Count was 10.

How did the Count turn out when 314 (HVLWVEPYYVINKY) [compound 314] was run?
Its Count is 10.

Which Count does the source give for 315 (HVPRVDHLYVETKS) [compound 315] here?
The Count was 10.

How did the Count turn out when 316 (HVPSGERYYVVKTI) [compound 316] was run?
Its Count is 10.

How did the Count turn out when 317 (HVPYVGAYNGVKKS) [compound 317] was run?
The Count was 10.

318 (HVQWEGPYYDVKKS) [compound 318] was tested. Which Count did it give?
Its Count is 10.

With 319 (HVRGAELSYVLTKS) [compound 319] as the substance, how does the Count read?
The Count was 10.

For 320 (HVTWGEPYQVLNKS) [compound 320], which Count is on record?
Its Count is 10.

How did the Count turn out when 321 (KLLTEAPYMFRTQA) [compound 321] was run?
Its Count is 10.

How did the Count turn out when 322 (KLPWQESYDIVRKS) [compound 322] was run?
The Count was 10.

How did the Count turn out when 323 (KLQWQDPDYVVKNS) [compound 323] was run?
The Count was 10.

With 324 (KQLGVLPDYVRKNT) [compound 324] as the substance, how does the Count read?
Its Count is 10.

Which Count does the source give for 325 (LAPFEERSYALKSP) [compound 325] here?
Its Count is 10.

How did the Count turn out when 326 (LASWDEPSSVLRES) [compound 326] was run?
Its Count is 10.

How did the Count turn out when 327 (LLPPDEPYYPMKKS) [compound 327] was run?
The Count was 10.

For 328 (NLQWEQPSYVAKDY) [compound 328], which Count is on record?
Its Count is 10.

329 (NVPWSEQYNALKTS) [compound 329] was tested. Which Count did it give?
Its Count is 10.

How did the Count turn out when 330 (QFASSHTDYVADKS) [compound 330] was run?
The Count was 10.

331 (QIQWQGSYNDLNKS) [compound 331] was tested. Which Count did it give?
Its Count is 10.

Which Count does the source give for 332 (QISSEEPTSLLDRP) [compound 332] here?
The Count was 10.

Which Count does the source give for 333 (QKPTGASYYGTKPS) [compound 333] here?
The Count was 10.

With 334 (QLAFDGPSPILTTS) [compound 334] as the substance, how does the Count read?
The Count was 10.

With 335 (QLHWGQPYSILNKS) [compound 335] as the substance, how does the Count read?
The Count was 10.

With 336 (QLPCEVPCYLVQYS) [compound 336] as the substance, how does the Count read?
The Count was 10.

For 337 (QLPLQYRYYFVDQS) [compound 337], which Count is on record?
The Count was 10.

Which Count does the source give for 338 (QLPWEGKYQLGKKR) [compound 338] here?
The Count was 10.

Which Count does the source give for 339 (QLRWHEPYHVVNRY) [compound 339] here?
The Count was 10.

Which Count does the source give for 340 (QSQCAGPGSAYKKC) [compound 340] here?
Its Count is 10.

With 341 (QTLAGETNSVVLKF) [compound 341] as the substance, how does the Count read?
Its Count is 10.

For 342 (QTQCEEPCYVVKFA) [compound 342], which Count is on record?
Its Count is 10.

For 343 (QVPSEEQFYAAVKS) [compound 343], which Count is on record?
Its Count is 10.

344 (QVPSENPFRVLKNL) [compound 344] was tested. Which Count did it give?
Its Count is 10.

With 345 (QVRYVASSDLVRIP) [compound 345] as the substance, how does the Count read?
The Count was 10.

How did the Count turn out when 346 (QVSLQEPGDVLKEF) [compound 346] was run?
The Count was 10.

How did the Count turn out when 347 (QVSREEPSGVVNKP) [compound 347] was run?
Its Count is 10.

348 (RLPSEALYYLVKRS) [compound 348] was tested. Which Count did it give?
The Count was 10.

Which Count does the source give for 349 (YVPVEGIQHVVEKS) [compound 349] here?
Its Count is 10.

Same assay, conditions: unique sequence count (relative enrichment); Nerve3 only

Which Count does the source give for 350 (HVRCEEPYCHVRKS) [compound 350] here?
Its Count is 755.

Which Count does the source give for 351 (ELPWQKRKDVMKYP) [compound 351] here?
The Count was 638.

352 (QMPWEVPYYVVKRS) [compound 352] was tested. Which Count did it give?
The Count was 548.

353 (DDIWEVPKYRPKNS) [compound 353] was tested. Which Count did it give?
Its Count is 475.

For 354 (QIASEERDNIVKKS) [compound 354], which Count is on record?
The Count was 462.
